The structures appear in SMILES notation.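 These data come from cells grown in 96-well plates and exposed to compound for 48 hours at five concentrations. The concentration for 50% growth inhibition is given as GI50.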 Active and inactive are the calls of the source. No stated cut-off is given here; in the data, active = GI50 up to about 1.1 µM and inactive = higher.

Among the test systems are A498; ACHN; HCT-116; HCT-15; HOP-92; IGROV-1; LOX IMVI; MDA-MB-435; MOLT-4; NCI-H460; NCI-H522; OVCAR-3; SF-268; SF-539; SK-MEL-28; SK-MEL-5; SK-OV-3; SW-620; U-251; CCRF-CEM.
What all share (assay): growth of human tumour cells (NCI), 48 h

On to `O=C(/C=C/c1ccc(-c2ccccc2[N+](=O)[O-])o1)NCc1ccc(C(=O)NCCc2ccccc2)cc1`, for which the GI50 with A498 is 29.3 µM (inactive); in the assay on ACHN, > 100 µM (inactive); in the assay on HCT-116 it was > 100 µM (inactive); with HCT-15 it was more than 100 µM; in the assay on HOP-92, > 100 µM (inactive); with IGROV-1, > 100 µM (inactive). In addition, the GI50 in the assay with LOX IMVI was > 100 µM (inactive); with MDA-MB-435 it was 3.92 µM (inactive); in the assay on MOLT-4, > 100 µM (inactive); in the assay on NCI-H460, > 100 µM (inactive); in the assay with NCI-H522, > 100 µM (inactive); in the assay on OVCAR-3, > 100 µM (inactive). The GI50 in the assay on SF-268, in the assay on SF-539, in the assay with SK-MEL-28, with SK-MEL-5, with SK-OV-3 and with SW-620 was > 100 µM (inactive) each time. In addition, in the assay on U-251, the GI50 was > 100 µM (inactive).
As to `COc1cc2c(cc1OC)C(C1CC1)ON(C)CC2` (stereo not given), the GI50 with A498 is > 100 µM (inactive); in the assay on ACHN it was > 100 µM (inactive); in the assay with CCRF-CEM, > 100 µM (inactive); in the assay on HCT-116 it was > 100 µM (inactive); in the assay on HCT-15, more than 100 µM; in the assay with HOP-92 it was > 100 µM (inactive). In addition, the GI50 in the assay with IGROV-1, with LOX IMVI, with MDA-MB-435, in the assay with MOLT-4, in the assay with NCI-H460 and with NCI-H522 was > 100 µM (inactive) each time. In addition, the GI50 in the assay on OVCAR-3, in the assay with SF-268, in the assay on SF-539, with SK-MEL-28, in the assay with SK-MEL-5 and with SW-620 was > 100 µM (inactive) throughout. Moreover, the GI50 in the assay on U-251 was > 100 µM (inactive).
Take `Cc1cc2c(cc1C)[n+]([O-])c(NCCCN(C)C)c(C#N)[n+]2[O-]`: the GI50 in the assay on A498 was > 100 µM (inactive); with ACHN it was > 100 µM (inactive); with CCRF-CEM, 57.3 µM (inactive); in the assay with HCT-116 it was 73.3 µM (inactive); with HCT-15 it was 75.2 µM; in the assay with HOP-92, > 100 µM (inactive). Moreover, the GI50 is 35.5 µM (inactive) with IGROV-1; > 100 µM (inactive) with LOX IMVI; > 100 µM (inactive) in the assay on MDA-MB-435; 22.7 µM (inactive) in the assay on MOLT-4; 26.2 µM (inactive) with NCI-H460; 57.4 µM (inactive) with NCI-H522. Further, the GI50 is 76.4 µM (inactive) in the assay with OVCAR-3; > 100 µM (inactive) in the assay with SF-268; > 100 µM (inactive) in the assay on SF-539; > 100 µM (inactive) in the assay with SK-MEL-28; 81.5 µM (inactive) in the assay with SK-OV-3; > 100 µM (inactive) in the assay with SW-620. In addition, the GI50 with U-251 was > 100 µM (inactive).
On to `NS(=O)(=O)c1nnc(NC(=O)Nc2ccc(Cl)c(Cl)c2)s1`, for which the GI50 is 22 µM (inactive) with A498; 34.2 µM (inactive) in the assay with ACHN; 14.3 µM (inactive) in the assay with CCRF-CEM; 19.5 µM (inactive) in the assay with HCT-116; 21.2 µM in the assay on HCT-15; 16.3 µM (inactive) in the assay on HOP-92. For the same compound, the GI50 with LOX IMVI is 18.2 µM (inactive); with MDA-MB-435 it was 20.3 µM (inactive); in the assay on MOLT-4, 32.5 µM (inactive); in the assay on NCI-H460 it was 19.1 µM (inactive); in the assay on NCI-H522, 11.7 µM (inactive); in the assay with OVCAR-3 it was 24.9 µM (inactive). Besides, the GI50 in the assay on SF-268 was 24.7 µM (inactive); in the assay with SF-539, 19 µM (inactive); with SK-MEL-28, 17.1 µM (inactive); in the assay with SK-MEL-5 it was 16.7 µM (inactive); in the assay with SK-OV-3 it was 20.6 µM (inactive); with SW-620, 27.9 µM (inactive). The GI50 in the assay with U-251 is 29.4 µM (inactive).
As to `O=C(C/C(=N/O)c1cc(-c2ccccc2)no1)c1ccccc1`, the GI50 in the assay with A498 was > 100 µM (inactive); in the assay with ACHN, 45 µM (inactive); with CCRF-CEM it was > 100 µM (inactive); in the assay on HCT-116 it was 20.4 µM (inactive); in the assay with HCT-15, more than 100 µM; with HOP-92 it was 22.2 µM (inactive). In addition, the GI50 in the assay on IGROV-1 is 30 µM (inactive); with LOX IMVI it was 36.4 µM (inactive); in the assay with MDA-MB-435 it was > 100 µM (inactive); in the assay with MOLT-4 it was 31.8 µM (inactive); in the assay on NCI-H460, 39.6 µM (inactive); in the assay with NCI-H522, 18.7 µM (inactive). Also, the GI50 in the assay with OVCAR-3 is 23.2 µM (inactive); in the assay with SF-268, 18.7 µM (inactive); with SF-539, 19.3 µM (inactive); in the assay with SK-MEL-28, > 100 µM (inactive); in the assay on SK-MEL-5 it was 80.9 µM (inactive); in the assay on SK-OV-3 it was 17.1 µM (inactive). Besides, in the assay on U-251, the GI50 was 28.6 µM (inactive).
For `C=CC1(C)CCC2C(=CCC3C2(C)CC(O)C(O)C3(C)COC2OC(CO)C(O)C(O)C2O)C1` (stereo not given), the GI50 in the assay on A498 is > 100 µM (inactive); with ACHN, > 100 µM (inactive); in the assay with CCRF-CEM, 46.1 µM (inactive); with HCT-116, > 100 µM (inactive); in the assay on HCT-15 it was more than 100 µM; in the assay on HOP-92 it was > 100 µM (inactive). In addition, the GI50 in the assay on IGROV-1 is > 100 µM (inactive); in the assay on LOX IMVI, > 100 µM (inactive); with MDA-MB-435 it was > 100 µM (inactive); in the assay on MOLT-4 it was 68.1 µM (inactive); with NCI-H460, 87.9 µM (inactive); in the assay with NCI-H522, > 100 µM (inactive). Besides, the GI50 in the assay with SF-268, with SF-539, in the assay with SK-MEL-28, in the assay on SK-MEL-5, in the assay with SK-OV-3 and in the assay with SW-620 was > 100 µM (inactive) each time. Further, the GI50 with U-251 is > 100 µM (inactive).
With `CN(C)Cc1cc(C(=O)/C=C/c2ccc(Br)cc2)cc(CN(C)C)c1O`, the GI50 is 14.3 µM (inactive) in the assay on A498; 3.6 µM (inactive) in the assay with ACHN; 3.24 µM (inactive) with CCRF-CEM; 6.14 µM (inactive) in the assay on HCT-116; 11.8 µM in the assay on HCT-15; 3.33 µM (inactive) with HOP-92. The GI50 was 11.7 µM (inactive) in the assay with IGROV-1; 1.99 µM (inactive) with LOX IMVI; 14.3 µM (inactive) in the assay on MDA-MB-435; 3.91 µM (inactive) in the assay on MOLT-4; 7.16 µM (inactive) in the assay with NCI-H460; 3.93 µM (inactive) with NCI-H522. In addition, the GI50 is 3.24 µM (inactive) in the assay with OVCAR-3; 18.2 µM (inactive) in the assay with SF-268; 14.3 µM (inactive) in the assay with SF-539; 12.2 µM (inactive) in the assay with SK-MEL-28; 10.7 µM (inactive) in the assay on SK-MEL-5; 4.25 µM (inactive) in the assay with SW-620. In addition, the GI50 in the assay on U-251 was 12.9 µM (inactive).
For the compound `CC1=C(C)C(=O)C(C2=CC(=O)C=CC2=O)=C(C2=CC(=O)C=CC2=O)C1=O`, the GI50 in the assay with A498 is > 100 µM (inactive); in the assay on ACHN, 59.4 µM (inactive); in the assay with CCRF-CEM, 14.1 µM (inactive); in the assay on HCT-116 it was 31.8 µM (inactive); in the assay on HCT-15, 41 µM; in the assay on HOP-92 it was 36.4 µM (inactive). Further, the GI50 in the assay with IGROV-1 is 21.4 µM (inactive); in the assay with LOX IMVI, 26.7 µM (inactive); in the assay on MDA-MB-435, 27.9 µM (inactive); in the assay with MOLT-4 it was 15.5 µM (inactive); in the assay on NCI-H460, > 100 µM (inactive); in the assay on NCI-H522 it was 21.2 µM (inactive). The GI50 with SF-268 was > 74.6 µM (inactive); with SF-539, 27.3 µM (inactive); in the assay on SK-MEL-28, > 74 µM (inactive); with SK-MEL-5 it was 21.3 µM (inactive); in the assay on SK-OV-3, > 100 µM (inactive); in the assay on SW-620, 28.4 µM (inactive). For the same compound, the GI50 in the assay on U-251 is 32.7 µM (inactive).
Take `O=C1Nc2ccccc2/C1=N/N=C1NCCCCN1`: the GI50 in the assay with A498 was > 100 µM (inactive); in the assay on ACHN it was > 100 µM (inactive); in the assay with CCRF-CEM it was > 100 µM (inactive); in the assay on HCT-116, > 100 µM (inactive); with HCT-15 it was more than 100 µM; in the assay with HOP-92, > 100 µM (inactive). Moreover, the GI50 with IGROV-1, with LOX IMVI, with MDA-MB-435, in the assay on MOLT-4, with NCI-H460 and in the assay on NCI-H522 was > 100 µM (inactive) in each case. Besides, the GI50 with OVCAR-3, in the assay on SF-268, in the assay with SF-539, in the assay with SK-MEL-5, in the assay on SK-OV-3 and in the assay with SW-620 was > 100 µM (inactive) in each case. For the same compound, in the assay on U-251, the GI50 was > 100 µM (inactive).
Regarding `COC(=O)C1=C2Nc3ccccc3C23CCN2C(O)C4(CC5CC67CCOC6CCN6CCC8(c9cccc(OC)c9N(C4)C58O)C67)C4OCCC4(C1)C23` (stereo not given), the GI50 in the assay with A498 is 64.3 µM (inactive); with ACHN, 86.5 µM (inactive); in the assay with CCRF-CEM, > 100 µM (inactive); in the assay with HCT-116, 34.5 µM (inactive); in the assay on HCT-15, more than 100 µM; in the assay on HOP-92, 27.2 µM (inactive). For the same compound, the GI50 in the assay on IGROV-1 is 87.7 µM (inactive); with LOX IMVI it was 95.5 µM (inactive); with MDA-MB-435, 58.7 µM (inactive); with NCI-H460, 76.7 µM (inactive); in the assay with NCI-H522, 36.4 µM (inactive); in the assay on OVCAR-3, > 100 µM (inactive). Further, the GI50 in the assay with SF-268 is 26.1 µM (inactive); with SF-539, > 100 µM (inactive); in the assay on SK-MEL-28 it was 97.5 µM (inactive); with SK-MEL-5 it was 49.5 µM (inactive); in the assay on SK-OV-3, 68.5 µM (inactive); in the assay on SW-620 it was 62.4 µM (inactive). Further, in the assay on U-251, the GI50 was 35.6 µM (inactive).

(Values after ChEMBL document CHEMBL1201862, “PubChem BioAssay data set” (2004).)
